We go through six compounds from ChEMBL document CHEMBL1151103, “Studies on cytotoxic constituents in pericarps of Mallotus japonicus, Part III” (1988).

Values after ≈ are worked out from the molar mass of the structure shown.

The test concerns KB. Nature of the test: Cytotoxicity against human KB cells. Format: functional. The conditions noted are these: read-out: ED50 (the source's name).
For `COc1c(C)c(O)c(C(C)=O)c(OC)c1Cc1c(O)c(C(=O)C(C)C)c2c(c1OC)C=CC(C)(C)O2`, the EC50 is 5.5 µg/mL (≈ 11 µM). To `CCCC(=O)c1c2c(c(OC(C)=O)c(Cc3c(OC)c(C)c(OC(C)=O)c(C(C)=O)c3OC(C)=O)c1OC(C)=O)C=CC(C)(C)O2` belongs 2.55 µg/mL (≈ 3.99 µM); to `COc1c(C)c(OC(C)=O)c(C(C)=O)c(OC(C)=O)c1Cc1c(OC(C)=O)c2c(c(C(=O)C(C)C)c1OC(C)=O)OC(C)(C)C=C2`, 2.65 µg/mL (≈ 4.15 µM); to `CCCC(=O)c1c(O)c(Cc2c(OC)c(C)c(O)c(C(C)=O)c2OC)c(OC)c2c1OC(C)(C)C=C2`, 5.9 µg/mL (≈ 11.8 µM). As for `CCCC(=O)c1c(O)c(Cc2c(O)c(C(C)=O)c(O)c(C)c2OC)c(O)c2c1OC(C)(C)C=C2` [BUTYRYLMALLOTOCHROMENE], the EC50 is 3.3 µg/mL (≈ 7.01 µM). As for `COc1c(C)c(O)c(C(C)=O)c(O)c1Cc1c(O)c2c(c(C(=O)C(C)C)c1O)OC(C)(C)C=C2` [ISOBUTYRYLMALLOTOCHROMENE], the EC50 stood at 0.4 µg/mL (≈ 0.85 µM).
